Test results reported in publication PMC11755785 (Langmuir, 2025).

Tests used:
Format in all cases: physicochemical
[1] = Phase-solubility diagram with HP-β-CD; parameters: stability constant K1:2 with HP-β-CD: unit not given here
[2] = Photostability under solar light, UV–vis spectra; settings: solar light 4 h; 50 μM; presence or absence of β-CD
Procedure: The photostability of the drug under solar light was evaluated using UV–vis spectral measurements. Sample solutions were exposed to solar light outdoors at a sunny location on a latitude of 35.92° N and a longitude of 139.91° E for 4 h, from 12:00 to 16:00, at an average temperature of 284.55 K.

[3] = UVA1 (365 nm) photodegradation in isochoric acetonitrile/water solvent; settings: UVA1 365 nm, 25 μM
Procedure: The samples were obtained after passage for appropriate periods and measured using an UV–vis spectrophotometer in the maximum range between 200 and 700 nm (arranged on demand) from long wavelengths toward short wavelengths to avoid unnecessary irradiation of the UV region. To obtain HPLC chromatograms, aliquots of the UV-irradiated solution were obtained by pipetting at 0, 1/5, 1/2, 1, 2, 3, 4, 24, 48, 72, 96, 120, 144, and 168 h for AVB and at 0, 1, 2, 3, and 18 h for CUR. To obtain those of OXB in the absence or presence of β-CD, the invariable samples were certified at 0 and 48 h. For the samples in acetonitrile aqueous solution or methanol aqueous solution at a ratio of 7:3, the time evolution of the UVA1 irradiated solution was examined under similar conditions.

[4] = 1H NMR titration of keto-enol and diketo tautomeric species
Procedure: ^1H NMR measurements were conducted using a 400 MHz NMR spectrometer (JNM-ECZ 400 S, Japan Electronics Co., Ltd., Tokyo, Japan). Sample solutions were prepared using D2O and methanol-d4 as the protic solvent, acetonitrile-d3 as the aprotic solvent, and their mixtures, with sample concentrations exceeding 1.5% (w/v). The chemical shifts of the samples were calibrated using the internal tetramethylsilane (TMS) signal as the zero point, whereas the solvent signals in the literature served as reference points. When sodium salts were required, the neutral AVB species in D2O were dissolved in equimolar amounts of aqueous NaOH and methanol-d4, followed by drying under reduced pressure in a rotary evaporator and heating to dryness below Tm of the sodium salts. The formation of sodium salts was confirmed by measuring Tm using a differential scanning calorimeter (DSC8230, Rigaku Co., Ltd., Tokyo, Japan).
In the one-dimensional (1D) ^1H NMR spectra, the integral intensities correspond to the relative stoichiometry of protons for the species, except for the signals assigned to the stable isotopes of deuterated solvents. We could recognize the aromatic proton signals of AVB, but the corresponding signals sometimes overlapped between its keto-enol and diketo species, depending upon the solvent composition. The signals of the aromatic protons at the para positions to the keto/enol substituents were neglected because of the high probability of overlap, in which the chemical shift drifts, Δδ, related to the shielding effect are not noticeably accompanied by the electronic states in the keto/enol substituents.
We chose the signals of the aromatic protons at the ortho positions and the aliphatic protons at the ortho substituents (tert-butyl and methoxy groups) to keto/enol substituents and measured their integral intensities. Using the simultaneous equations built as linear combinations of integral values for the isolated and overlapping signals, we determined the molar ratio of the keto-enol and diketo species.

[5] = regression with 2-order equation, pH 6.8
[6] = 70% methanol (methanol-d4/D2O = 7:3)
[7] = isochoric acetonitrile/water solvent

p-tert-butyl-p-methoxydibenzoylmethane [AVB]
stability constant K1:2 with HP-β-CD ([1]; 25 mM Pi/NaOH buffer pH 6.8, 298 K, Figure 2): 40.4 | stability constant K1:1 with HP-β-CD ([1]; 25 mM Pi/NaOH buffer pH 6.8, 298 K, Figure 2, in M-1 (unit assumed)): 90.3 | stability constant K1:1 with HP-β-CD (equimolar complex) [1, 5]: 90.3 L/mol | stability constant K1:2 with HP-β-CD (1:2-ratio complex) [1, 5]: 40.4 L^2/mol^2 | stability under solar light compared to UVA1 irradiation [2]: no significant changes in stability | effect of equimolar and 4 mM β-CD on photodegradation velocity / first-order rate [3]: reduced the photodegradation velocity | molar ratio of diketo species [4, 6]: 15.3% | molar ratio of keto-enol species [4, 6]: 84.7% | molar ratio of diketo species [4, 7]: 9.3% | molar ratio of keto-enol species [4, 7]: 90.7%
